Laboratory results taken from EP0726261A1, “Herbidical 1,2,4 thiadiazoles” (American Cyanamid Company, priority 1995, dated 1996).

Assays:
Assay type in all cases: in vivo
Zea mays [1] = experiment: Herbicidal activity, preemergence test (Example 66); parameters: key: A rating of 0 indicates growth as untreated control; a rating of 9 indicates death; conditions: pre; 1000 g/ha; assessed visually twenty days after spraying
Procedure: (§1) To evaluate their herbicidal activity, compounds according to the invention are tested using a representative range of plants: ZEAMX Zea mays ORYSA Oryza sativa GLXMA Glycine max BEAVA Beta vulgaris LIUUT Linum usitatissimum AVEFA Avena fatua ECHCG Echinochloa crus-galli SINAL Sinapsis alba
(§2) The tests fall into two categories, preemergence and postemergence. The preemergence tests involve spraying a liquid formulation of the compound onto the soil in which the seeds of the plant species mentioned above have recently been sown. The postemergence tests involve spraying a liquid formulation of the compound onto seedling plants of the above species.
(§3) The soil used in the tests is a prepared horticultural loam.
(§4) The formulations used in the tests are prepared from solutions of the test compounds in acetone containing 0.4% by weight of an alkylphenol/ethylene oxide condensate available under the trademark TRITON X-155. These acetone solutions are diluted with water and the resulting formulations applied at dosage levels corresponding to 1000 g of active material per hectare in a volume equivalent to 900 litres per hectare.
(§5) In the preemergence tests, untreated sown soil, and in the postemergence tests, untreated soil bearing seedling plants, are used as controls.
(§6) The herbicidal effects of the test compounds are assessed visually twenty days after spraying the foliage and the soil and are recorded on a 0-9 scale. A rating of 0 indicates growth as untreated control, a rating of 9 indicates death. An increase of 1 unit on the linear scale approximates to an 11% increase in the level of effect.

Echinochloa crus-galli [2] = experiment: as above; parameters: key: A rating of 0 indicates growth as untreated control; a rating of 9 indicates death; conditions: pre; 1000 g/ha; assessed visually twenty days after spraying
Procedure: as §1, §2, §3, §4, §5, §6

Linum usitatissimum [3] = experiment: as above; parameters: key: A rating of 0 indicates growth as untreated control; a rating of 9 indicates death; conditions: pre; 1000 g/ha; assessed visually twenty days after spraying
Procedure: as §1, §2, §3, §4, §5, §6

Glycine max [4] = experiment: as above; parameters: key: A rating of 0 indicates growth as untreated control; a rating of 9 indicates death; conditions: pre; 1000 g/ha; assessed visually twenty days after spraying
Procedure: as §1, §2, §3, §4, §5, §6

Oryza sativa [5] = experiment: as above; parameters: key: A rating of 0 indicates growth as untreated control; a rating of 9 indicates death; conditions: pre; 1000 g/ha; assessed visually twenty days after spraying
Procedure: as §1, §2, §3, §4, §5, §6

Sinapsis alba [6] = experiment: as above; parameters: key: A rating of 0 indicates growth as untreated control; a rating of 9 indicates death; conditions: pre; 1000 g/ha; assessed visually twenty days after spraying
Procedure: as §1, §2, §3, §4, §5, §6

Beta vulgaris [7] = experiment: as above; parameters: key: A rating of 0 indicates growth as untreated control; a rating of 9 indicates death; conditions: pre; 1000 g/ha; assessed visually twenty days after spraying
Procedure: as §1, §2, §3, §4, §5, §6

Avena fatua [8] = experiment: as above; parameters: key: A rating of 0 indicates growth as untreated control; a rating of 9 indicates death; conditions: pre; 1000 g/ha; assessed visually twenty days after spraying
Procedure: as §1, §2, §3, §4, §5, §6

Zea mays [9] = experiment: Herbicidal activity, postemergence test (Example 66); parameters: key: A rating of 0 indicates growth as untreated control; a rating of 9 indicates death; conditions: post; 1000 g/ha; assessed visually twenty days after spraying
Procedure: as §1, §2, §3, §4, §5, §6

Echinochloa crus-galli [10] = experiment: as above; parameters: key: A rating of 0 indicates growth as untreated control; a rating of 9 indicates death; conditions: post; 1000 g/ha; assessed visually twenty days after spraying
Procedure: as §1, §2, §3, §4, §5, §6

Linum usitatissimum [11] = experiment: as above; parameters: key: A rating of 0 indicates growth as untreated control; a rating of 9 indicates death; conditions: post; 1000 g/ha; assessed visually twenty days after spraying
Procedure: as §1, §2, §3, §4, §5, §6

Oryza sativa [12] = experiment: as above; parameters: key: A rating of 0 indicates growth as untreated control; a rating of 9 indicates death; conditions: post; 1000 g/ha; assessed visually twenty days after spraying
Procedure: as §1, §2, §3, §4, §5, §6

Sinapsis alba [13] = experiment: as above; parameters: key: A rating of 0 indicates growth as untreated control; a rating of 9 indicates death; conditions: post; 1000 g/ha; assessed visually twenty days after spraying
Procedure: as §1, §2, §3, §4, §5, §6

Beta vulgaris [14] = experiment: as above; parameters: key: A rating of 0 indicates growth as untreated control; a rating of 9 indicates death; conditions: post; 1000 g/ha; assessed visually twenty days after spraying
Procedure: as §1, §2, §3, §4, §5, §6

Avena fatua [15] = experiment: as above; parameters: key: A rating of 0 indicates growth as untreated control; a rating of 9 indicates death; conditions: post; 1000 g/ha; assessed visually twenty days after spraying
Procedure: as §1, §2, §3, §4, §5, §6

Glycine max [16] = experiment: as above; conditions: post; 1000 g/ha; assessed visually twenty days after spraying
Procedure: as §1, §2, §3, §4, §5, §6

Compound | herbicidal effects on a 0-9 scale, ZEAMX (Zea mays [1]) | herbicidal effects on a 0-9 scale, ECHCG (Echinochloa crus-galli [2]) | herbicidal effects on a 0-9 scale, LIUUT (Linum usitatissimum [3]) | herbicidal effects on a 0-9 scale, GLXMA (Glycine max [4]) | herbicidal effects on a 0-9 scale, ORYSA (Oryza sativa [5]) | herbicidal effects on a 0-9 scale, SINAL (Sinapsis alba [6]) | herbicidal effects on a 0-9 scale, BEAVA (Beta vulgaris [7]) | herbicidal effects on a 0-9 scale, AVEFA (Avena fatua [8]) | herbicidal effects on a 0-9 scale, ZEAMX (Zea mays [9]) | herbicidal effects on a 0-9 scale, ECHCG (Echinochloa crus-galli [10]) | herbicidal effects on a 0-9 scale, LIUUT (Linum usitatissimum [11]) | herbicidal effects on a 0-9 scale, ORYSA (Oryza sativa [12]) | herbicidal effects on a 0-9 scale, SINAL (Sinapsis alba [13]) | herbicidal effects on a 0-9 scale, BEAVA (Beta vulgaris [14]) | herbicidal effects on a 0-9 scale, AVEFA (Avena fatua [15]) | herbicidal effects on a 0-9 scale, GLXMA (Glycine max [16])
CC(NC(=O)c1nc(-c2ccccc2)ns1)c1cccs1 (racemic) [Example 4, (R/S)-3-Phenyl-[1,2,4]thiadiazole-5-carboxylic acid, [1-(2-thienyl)ethyl]amide] | 0 | 0 | 0 | 0 | 0 | 0 | 0 | 0 | 0 | 8 | 7 | 0 | 8 | 8 | 5 | 5
CC(NC(=O)c1nc(C(C)(C)C)ns1)c1cccs1 (racemic) [Example 6, (R/S)-3-tert-Butyl-[1,2,4]thiadiazole-5-carboxylic acid, [1-(2-thienyl)ethyl]amide] | 0 | 0 | 3 | 0 | 0 | 7 | 9 | 0 | 0 | 9 | 9 | 2 | 9 | 9 | 7 | 7
CC(C)Cc1nsc(C(=O)NC(C)c2cccs2)n1 (racemic) [Example 12, (R/S)-3-Isobutyl-[1,2,4]thiadiazole-5-carboxylic acid, [1-(2-thienyl)ethyl]amide] | 0 | 5 | 2 | 0 | 0 | 5 | 5 | 0 | 0 | 9 | 8 | 0 | 9 | 8 | 2 | 5
CC(NC(=O)c1nc(-c2ccc(F)cc2)ns1)c1cccs1 (racemic) [Example 15, (R/S)-3-(4-Fluorophenyl)-[1,2,4]thiadiazole-5-carboxylic acid, [1-(2-thienyl)ethyl]amide] | 0 | 0 | 0 | 0 | 0 | 0 | 0 | 0 | 3 | 7 | 7 | 0 | 9 | 9 | 4 | 7
CC(NC(=O)c1nc(-c2cccc(C(F)(F)F)c2)ns1)c1cccs1 (racemic) [Example 21, (R/S)-3-(3-Trifluoromethylphenyl)-[1,2,4]thiadiazole-5-carboxylic acid, [1-(2-thienyl)ethyl]amide] | 0 | 0 | 0 | 0 | 0 | 0 | 0 | 0 | 0 | 8 | 7 | 0 | 9 | 8 | 7 | 7
CC(NC(=O)c1nsc(-c2ccccc2)n1)c1cccs1 (racemic) [Example 22] | 1 | 2 | 0 | 0 | 0 | 3 | 2 | 0 | 2 | 5 | 6 | 2 | 7 | 9 | 4 | 6
CC(NC(=O)c1nsc(-c2ccc(Cl)cc2)n1)c1cccs1 (racemic) [Example 23, (R/S)-5-(4-Chlorophenyl)-[1,2,4]thiadiazole-3-carboxylic acid, [1-(2-thienyl)ethyl]amide] | 0 | 0 | 0 | 0 | 0 | 0 | 0 | 0 | 0 | 8 | 7 | 0 | 9 | 9 | 4 | 7
C[C@H](NC(=O)c1nc(-c2ccccc2)ns1)c1ccccc1 [Example 5] | 0 | 0 | 0 | 0 | 0 | 0 | 4 | 0 | 2 | 8 | 7 | 0 | 9 | 5 | 6 | 4
CC(C)(C)c1nsc(C(=O)NCc2cccs2)n1 [Example 7] | 0 | 0 | 0 | 0 | 0 | 0 | 0 | 0 | 0 | 0 | 4 | 0 | 8 | 8 | 0 | 3
